{
  "source": "patent US10550143B2",
  "about": "“C,O-spiro aryl glycoside compounds, preparation therefor and use thereof” (SHANGHAI INSTITUTE OF MATERIA MEDICA, CHINESE ACADEMY OF …, priority 2015, dated 2020)",
  "key": {"hSGLT1": {"molecular_target": "T1, hSGLT1 (Homo sapiens, UniProt P13866)", "T1 sequence (P13866 1-664)": "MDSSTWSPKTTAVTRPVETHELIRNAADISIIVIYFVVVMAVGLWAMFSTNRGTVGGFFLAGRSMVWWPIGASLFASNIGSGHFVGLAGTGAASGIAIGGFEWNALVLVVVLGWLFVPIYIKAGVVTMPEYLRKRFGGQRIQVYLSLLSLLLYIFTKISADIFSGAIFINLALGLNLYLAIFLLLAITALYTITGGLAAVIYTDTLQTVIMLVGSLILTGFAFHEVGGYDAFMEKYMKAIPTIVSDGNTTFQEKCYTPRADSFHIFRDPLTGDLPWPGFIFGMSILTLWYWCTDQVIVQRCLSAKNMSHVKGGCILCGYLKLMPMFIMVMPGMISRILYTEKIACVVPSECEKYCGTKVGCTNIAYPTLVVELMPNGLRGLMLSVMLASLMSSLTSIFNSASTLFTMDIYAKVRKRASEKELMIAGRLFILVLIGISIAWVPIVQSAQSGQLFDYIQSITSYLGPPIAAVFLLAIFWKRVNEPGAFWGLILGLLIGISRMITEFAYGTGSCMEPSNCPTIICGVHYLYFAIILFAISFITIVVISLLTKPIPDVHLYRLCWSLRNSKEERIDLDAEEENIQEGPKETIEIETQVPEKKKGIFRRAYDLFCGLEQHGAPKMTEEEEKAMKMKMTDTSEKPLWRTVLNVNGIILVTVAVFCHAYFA", "assay": "In vitro SGLT1 inhibition (hSGLT1 IC50 test)", "type": "cell-based", "settings": "read-out: IC50 ± SD SGLT1"}, "[1]": {"assay": "Pharmacokinetics in rats after intragastric and intravenous administration", "type": "in vivo, rat", "description": "Six healthy rats were randomly divided into two groups, three for each group. A28 was administered orally and intravenously, and the drug was grounded and dissolved in 0.5% MC. Fasted for 8 h before testing.\nThree rats were intravenously administrated with 2 mg/kg of test compound A28, and 3 rats were orally administered with 10 mg/kg of test compound A28. Blood was collected from the orbital venous plexus of rats before administration, at 15 min, 30 min, 1 hour, 2 hours, 4 hours, 8 hours, 24 hours after administration, respectively. Blood sample were taken from three rats at each time point for each dose, and the plasma was immediately centrifuged."}, "db/db mice": {"tested_on": "db/db mice", "assay": "Chronic administration, random blood glucose in db/db mice", "type": "in vivo, mouse", "settings": "for random blood glucose Pre: before administration; for Hypoglycemic rate % week 1 / Hypoglycemic rate % week 2 / Hypoglycemic rate % week 3 / Hypoglycemic rate % week 4: random blood glucose", "description": "Oral gavage administrated, daily dose volume was 10 mL/kg, administered once daily. Administration time was 9: 00-10:00 daily, and the administration period was 5 weeks.\nThe random blood glucose of mice in the normal control group, model control group, test substance administration group and positive control group were determined on the 7th, 14th, 21st, 28th day (9: 00-10:00) every week after the first administration, and food was removed and after 6 hours of starvation, the fasting blood glucose in each group was measured. Free drinking during the hunger process. The rate of decrease of blood glucose was calculated according to the following formula: Average hypoglycemic rate %=(Blood glucose of model control group−Blood glucose of administration group)/Model control group×100%"}, "[2]": {"settings": "rat, plasma, po, gavage 10 mg/kg"}},
  "data": [
    {"smiles": "CCc1ccc(Cc2cc3c(cc2Cl)CO[C@]32O[C@H](C)[C@@H](O)[C@H](O)[C@H]2O)s1", "note": "[Example A28, (1S,3′R,4′S,5′S,6′R)-6′-methyl-6-((5-ethylthienyl)-2-methyl)-5-chloro-3′,4′,5′,6′-tetrahydro-3H-spiro[isobenzofuran-1,2′-pyran]-3′,4′,5′-triol]", "values": [
      {"measurement": "IC50", "setting": "hSGLT1", "result": "2.06 ± 0.21", "unit": "µM"},
      {"measurement": "AUC(0-t)", "setting": "[1]; rat, plasma, intravenous, vein 2 mg/kg", "result": 0.252, "unit": "µg·h/mL"},
      {"measurement": "AUC(0-inf)", "setting": "[1]; rat, plasma, iv, vein 2 mg/kg", "result": 0.252, "unit": "µg·h/mL"},
      {"measurement": "Cmax", "setting": "[1]; rat, plasma, iv, vein 2 mg/kg", "result": 0.201, "unit": "µg/mL"},
      {"measurement": "MRT", "setting": "[1]; rat, plasma, iv, vein 2 mg/kg", "result": 0.982, "unit": "h"},
      {"measurement": "Tmax", "setting": "[1]; rat, plasma, iv, vein 2 mg/kg", "result": 0.25, "unit": "h"},
      {"measurement": "half-life", "setting": "[1]; rat, plasma, iv, vein 2 mg/kg", "result": 1.53, "unit": "h"},
      {"measurement": "bioavailability", "setting": "[1]; rat, plasma, oral, gavage 10 mg/kg vs vein 2 mg/kg, dose normalized, read-out: F (absolute bioavailability)", "result": 107, "unit": "%"},
      {"measurement": "AUC(0-inf)", "setting": "[1]; [2]", "result": 1.35, "unit": "µg·h/mL"},
      {"measurement": "AUC(0-t)", "setting": "[1]; [2]", "result": 1.35, "unit": "µg·h/mL"},
      {"measurement": "Cmax", "setting": "[1]; [2]", "result": 0.273, "unit": "µg/mL"},
      {"measurement": "MRT", "setting": "[1]; [2]", "result": 3.79, "unit": "h"},
      {"measurement": "Tmax", "setting": "[1]; [2]", "result": 1.67, "unit": "h"},
      {"measurement": "half-life", "setting": "[1]; [2]", "result": 1.69, "unit": "h"},
      {"measurement": "CLz", "setting": "[1]; vein 2 mg/kg", "result": 8.03, "unit": "L/h/kg"},
      {"measurement": "random blood glucose week 1", "setting": "db/db mice; 0.3 mg/kg once daily oral", "result": "16.9 ± 1.3", "unit": "mmol/L"},
      {"measurement": "random blood glucose week 2", "setting": "db/db mice; 0.3 mg/kg once daily oral", "result": "15.7 ± 1.3", "unit": "mmol/L"},
      {"measurement": "random blood glucose week 3", "setting": "db/db mice; 0.3 mg/kg once daily oral", "result": "16.7 ± 1.5", "unit": "mmol/L"},
      {"measurement": "random blood glucose week 4", "setting": "db/db mice; 0.3 mg/kg once daily oral", "result": "19.1 ± 1.6", "unit": "mmol/L"},
      {"measurement": "random blood glucose Pre", "setting": "db/db mice; 0.3 mg/kg once daily oral", "result": "17.9 ± 1.4", "unit": "mmol/L"},
      {"measurement": "random blood glucose week 1", "setting": "db/db mice; 1 mg/kg once daily oral", "result": "16.1 ± 1.0", "unit": "mmol/L"},
      {"measurement": "random blood glucose week 2", "setting": "db/db mice; 1 mg/kg once daily oral", "result": "16.3 ± 1.2", "unit": "mmol/L"},
      {"measurement": "random blood glucose week 3", "setting": "db/db mice; 1 mg/kg once daily oral", "result": "15.9 ± 1.1", "unit": "mmol/L"},
      {"measurement": "random blood glucose week 4", "setting": "db/db mice; 1 mg/kg once daily oral", "result": "15.1 ± 1.4", "unit": "mmol/L"},
      {"measurement": "random blood glucose Pre", "setting": "db/db mice; 1 mg/kg once daily oral", "result": "16.8 ± 1.2", "unit": "mmol/L"},
      {"measurement": "random blood glucose week 1", "setting": "db/db mice; 3 mg/kg once daily oral", "result": "14.7 ± 0.9", "unit": "mmol/L"},
      {"measurement": "random blood glucose week 2", "setting": "db/db mice; 3 mg/kg once daily oral", "result": "13.0 ± 0.8", "unit": "mmol/L"},
      {"measurement": "random blood glucose week 3", "setting": "db/db mice; 3 mg/kg once daily oral", "result": "12.4 ± 1.0", "unit": "mmol/L"},
      {"measurement": "random blood glucose week 4", "setting": "db/db mice; 3 mg/kg once daily oral", "result": "13.2 ± 0.9", "unit": "mmol/L"},
      {"measurement": "random blood glucose Pre", "setting": "db/db mice; 3 mg/kg once daily oral", "result": "18.7 ± 1.2", "unit": "mmol/L"},
      {"measurement": "random blood glucose week 1", "setting": "db/db mice; 10 mg/kg once daily oral", "result": "12.9 ± 0.6", "unit": "mmol/L"},
      {"measurement": "random blood glucose week 2", "setting": "db/db mice; 10 mg/kg once daily oral", "result": "10.6 ± 0.5", "unit": "mmol/L"},
      {"measurement": "random blood glucose week 3", "setting": "db/db mice; 10 mg/kg once daily oral", "result": "9.1 ± 0.4", "unit": "mmol/L"},
      {"measurement": "random blood glucose week 4", "setting": "db/db mice; 10 mg/kg once daily oral", "result": "9.7 ± 0.7", "unit": "mmol/L"},
      {"measurement": "random blood glucose Pre", "setting": "db/db mice; 10 mg/kg once daily oral", "result": "18.3 ± 1.6", "unit": "mmol/L"},
      {"measurement": "Hypoglycemic rate % week 1", "setting": "db/db mice; 0.3 mg/kg once daily oral", "result": 14.0, "unit": "%"},
      {"measurement": "Hypoglycemic rate % week 2", "setting": "db/db mice; 0.3 mg/kg once daily oral", "result": 19.1, "unit": "%"},
      {"measurement": "Hypoglycemic rate % week 3", "setting": "db/db mice; 0.3 mg/kg once daily oral", "result": 18.0, "unit": "%"},
      {"measurement": "Hypoglycemic rate % week 4", "setting": "db/db mice; 0.3 mg/kg once daily oral", "result": 7.8, "unit": "%"},
      {"measurement": "Hypoglycemic rate % week 1", "setting": "db/db mice; 1 mg/kg once daily oral", "result": 17.9, "unit": "%"},
      {"measurement": "Hypoglycemic rate % week 2", "setting": "db/db mice; 1 mg/kg once daily oral", "result": 16.0, "unit": "%"},
      {"measurement": "Hypoglycemic rate % week 3", "setting": "db/db mice; 1 mg/kg once daily oral", "result": 21.8, "unit": "%"},
      {"measurement": "Hypoglycemic rate % week 4", "setting": "db/db mice; 1 mg/kg once daily oral", "result": 27.0, "unit": "%"},
      {"measurement": "Hypoglycemic rate % week 1", "setting": "db/db mice; 3 mg/kg once daily oral", "result": 25.4, "unit": "%"},
      {"measurement": "Hypoglycemic rate % week 2", "setting": "db/db mice; 3 mg/kg once daily oral", "result": 33.1, "unit": "%"},
      {"measurement": "Hypoglycemic rate % week 3", "setting": "db/db mice; 3 mg/kg once daily oral", "result": 39.0, "unit": "%"},
      {"measurement": "Hypoglycemic rate % week 4", "setting": "db/db mice; 3 mg/kg once daily oral", "result": 36.6, "unit": "%"},
      {"measurement": "Hypoglycemic rate % week 1", "setting": "db/db mice; 10 mg/kg once daily oral", "result": 34.3, "unit": "%"},
      {"measurement": "Hypoglycemic rate % week 2", "setting": "db/db mice; 10 mg/kg once daily oral", "result": 45.3, "unit": "%"},
      {"measurement": "Hypoglycemic rate % week 3", "setting": "db/db mice; 10 mg/kg once daily oral", "result": 55.3, "unit": "%"},
      {"measurement": "Hypoglycemic rate % week 4", "setting": "db/db mice; 10 mg/kg once daily oral", "result": 53.1, "unit": "%"}
    ]}
  ]
}
